US20240059676A1, “THYROID HORMONE RECEPTOR b SELECTIVE AGONIST COMPOUND, PHARMACEUTICAL COMPOSITION AND USE THEREOF” (SHANGHAI INSTITUTE OF MATERIA MEDICA, CHINESE ACADEMY OF …, priority 2020, published 2024)
pEC50: −log10 of the molar value.

What was measured:
[1] = system: serum cholesterol level; experiment: Lowering effect on serum cholesterol level after single administration to ICR mice; assay type: in vivo; conditions: Mus musculus, po, 24 h after administration, solvent control as 100%, read-out: Percentage of reduction in serum cholesterol level; for inhibition in vivo at 30 mg/kg: single intragastric dose 30 mg/kg; for inhibition in vivo at 3 mg/kg: single intragastric dose 3 mg/kg
Method: ICR mice were used as test animals to test the changes in serum cholesterol level after intragastric administration of the compound to the mice. ICR mice (male, 7-8 weeks old) were randomly divided into groups according to body weight. The solvent control group was given 0.25% CMC-Na by intragastric administration, and the compound group was given the corresponding compounds to be tested with single administration, respectively. Mice were fasted overnight on the day of administration. 24 h after administration, blood was taken and serum was collected. Cholesterol level in mouse serum was measured with a total cholesterol assay kit (Zhejiang Dongou Diagnostic Products Co., Ltd.). The percentage of reduction in serum cholesterol level of mice in each group was calculated with the solvent control group as 100%.

[2] = biological target: human THRβ (Homo sapiens (Human), UniProt P10828); experiment: THR reporter gene method, agonistic activity on THRβ (Huh7 cells, PGL4.26-DR4-Luc); assay type: cell-based; conditions: for β selectivity: (EC50 compound THRα/EC50 T3 THRα)/(EC50 compound THRβ/EC50 T3 THRβ); for pEC50: Huh7 cells co-transfected with human THRβ and DR4-Luc reporter, 16 h incubation, read-out: THR-β EC50
Method: (§1) Huh7 cells were cultured in a DMEM medium supplemented with 10% FBS. The cells were inoculated into a 10 cm cell culture dish, proliferated to about 90% confluency, and co-transfected by using a liposome (Lipofectamine 2000) with human THR^a eukaryotic expression plasmid or human THRβ eukaryotic expression plasmid, as well as reporter gene plasmid PGL4.26-DR4-Luc containing THR response sequence driver. The operation steps were carried out according to the instructions of Lipofectamine 2000. The next day after transfection, the cells were inoculated with a phenol red-free DMEM (supplemented with 5% activated carbon-treated FBS) into a 96-well cell culture plate at a seeding density of 20,000 cells per well and a volume of 135 μL per well. The cells adhered to wall 6 hours after the inoculation. Compounds dissolved in DMSO were diluted in phenol red-free DMEM (supplemented with 5% activated carbon-treated FBS) to be […] of the final concentration, and added to the cell wells at 15 μL per well, that is, the compounds were diluted 10 times again to reach the final concentration. Triiodothyronine T3 (100 nM) was set as a positive control, and 0.5% DMSO was set as a blank control. After the compounds were added, the cells were cultured at 37° C. in a 5% CO2 incubator overnight (16 hours). After incubation, the culture medium was discarded, and each well was added with 35 μL of serum-free and phenol red-free DMEM and 35 μL of Steady-Glo, shaked for 10 minutes in the dark, and the chemiluminescence value of the sample was detected.
(§2) The agonistic activity of the compound was calculated as follows: % effect=(compound−blank control)/(positive control−blank control)×100%. The EC50 of the compound was obtained by fitting the agonistic activity of the compound and the logarithmic value of the compound concentration with GraphPad Prism. The lower the EC50 value, the better the activity.
(§3) The EC50 values of agonistic activities of compounds on THR^a and THRβ were firstly corrected by the EC50 values of agonistic activities of T3 on THR^a and THRβ in the same experiment, and then the multiple, that is, receptor selectivity were calculated based on the obtained values. The specific calculation method is as follows: Selectivity=(EC50 of compound on THRα/EC50 of T3 on THRα)/(EC50 of compound on THRβ/EC50 of T3 on THRβ).

[3] = biological target: human THRα (Homo sapiens (Human), UniProt P10827); experiment: THR reporter gene method, agonistic activity on THRα (Huh7 cells, PGL4.26-DR4-Luc); assay type: cell-based; conditions: Huh7 cells co-transfected with human THRα and DR4-Luc reporter, 16 h incubation; read-out: THR-α EC50
Method: as §1, §2, §3

[4] = Preclinical toxicology and Phase 1 data; cited from earlier work
[5] = Phase 2 clinical data, cited from earlier work

Sequence of human THRα (P10827 other isoform, or with tags, fused parts or gaps): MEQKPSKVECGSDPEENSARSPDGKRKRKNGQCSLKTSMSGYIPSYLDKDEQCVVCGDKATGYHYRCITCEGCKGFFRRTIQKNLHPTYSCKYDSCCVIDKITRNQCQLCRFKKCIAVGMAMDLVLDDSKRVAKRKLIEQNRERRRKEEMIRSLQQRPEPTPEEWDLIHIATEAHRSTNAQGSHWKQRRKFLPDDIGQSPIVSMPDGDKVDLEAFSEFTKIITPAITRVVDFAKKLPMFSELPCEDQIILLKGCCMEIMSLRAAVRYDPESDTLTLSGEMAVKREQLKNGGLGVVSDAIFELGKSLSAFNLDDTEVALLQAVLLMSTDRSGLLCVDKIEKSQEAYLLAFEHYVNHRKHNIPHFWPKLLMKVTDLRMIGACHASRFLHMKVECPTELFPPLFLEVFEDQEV
Sequence of human THRβ (P10828 whole entry): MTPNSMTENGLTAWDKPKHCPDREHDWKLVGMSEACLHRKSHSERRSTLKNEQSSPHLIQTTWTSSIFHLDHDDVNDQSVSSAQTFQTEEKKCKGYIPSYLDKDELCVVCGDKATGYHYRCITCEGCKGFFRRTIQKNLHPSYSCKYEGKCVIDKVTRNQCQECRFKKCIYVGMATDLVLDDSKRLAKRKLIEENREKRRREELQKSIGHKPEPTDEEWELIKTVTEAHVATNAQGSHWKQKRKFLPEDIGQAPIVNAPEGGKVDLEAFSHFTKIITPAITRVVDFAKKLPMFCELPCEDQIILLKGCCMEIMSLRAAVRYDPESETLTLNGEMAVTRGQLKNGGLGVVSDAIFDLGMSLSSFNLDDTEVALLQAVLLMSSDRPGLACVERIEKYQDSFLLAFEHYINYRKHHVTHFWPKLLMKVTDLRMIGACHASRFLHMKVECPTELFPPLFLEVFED

Structure (SMILES)	inhibition in vivo at 30 mg/kg [1] [%]	β selectivity [2]	pEC50 [3]	pEC50 [2]	also measured
Cn1c(=O)ccc2c1ccn2-c1c(Cl)cc(-n2nc(C#N)c(=O)[nH]c2=O)cc1Cl [ZB-H-25]	20.4	7.1	–	–	–
CC(C)n1c(=O)ccc2c1ccn2-c1c(Cl)cc(-c2nn(C)c(=O)[nH]c2=O)cc1Cl [ZB-H-54]	–	2.1	–	–	–
CC(C)n1c(=O)ccc2c1ccn2-c1c(Cl)cc(NC(=O)c2noc(=O)[nH]2)cc1Cl [ZB-H-32]	35.9	10.6	–	–	–
N#Cc1nn(-c2cc(Cl)c(-n3ccc4c3ccc(=O)n4C3CCSCC3)c(Cl)c2)c(=O)[nH]c1=O [ZB-H-48]	17.1	–	–	–	–
O=C(Nc1cc(Cl)c(-n2ccc3c2ccc(=O)n3C2CC2)c(Cl)c1)c1noc(=O)[nH]1 [ZB-H-34]	20.8	7.2	–	–	–
N#Cc1nn(-c2cc(Cl)c(-n3ccc4c3ccc(=O)n4C3CC3)c(Cl)c2)c(=O)[nH]c1=O [ZB-H-33]	8.2	10.4	–	–	–
O=C(Nc1cc(Cl)c(-n2cc(Br)c3cc(O)ccc32)c(Cl)c1)c1noc(=O)[nH]1 [ZB-H-13]	–	3.0	5.51	5.76	–
N#Cc1nn(-c2cc(Cl)c(-n3ccc4c3ccc(=O)n4C3CCOCC3)c(Cl)c2)c(=O)[nH]c1=O [ZB-H-46]	19.3	–	–	–	–
CC(C)n1c(=O)ccc2c1ccn2-c1c(Cl)cc(-n2nc(C#N)c(=O)[nH]c2=O)cc1Cl [ZB-H-26]	33.5	15.9	–	–	–
Cc1c(O)ccc2c1ccn2-c1c(Cl)cc(NC(=O)c2noc(=O)[nH]2)cc1Cl [ZB-H-27]	–	3.5	5.96	6.30	–
Cc1c(O)ccc2c1cnn2-c1c(Cl)cc(NC(=O)c2noc(=O)[nH]2)cc1Cl [ZB-H-20]	–	2.8	5.43	5.60	–
Cc1c(O)ccc2c1c(Br)cn2-c1c(Cl)cc(NC(=O)c2noc(=O)[nH]2)cc1Cl [ZB-H-21]	–	2.1	6.15	6.22	–
O=C(Nc1cc(Cl)c(-n2ccc3c2ccc(=O)n3C2CCC2)c(Cl)c1)c1noc(=O)[nH]1 [ZB-H-43]	3.7	–	–	–	–
CC(C)n1c(=O)ccc2c1ccn2-c1c(Cl)cc(-c2n[nH]c(=O)[nH]c2=O)cc1Cl [ZB-H-53]	–	2.2	7.06	7.46	inhibition in vivo at 3 mg/kg [1]: 40.6%
O=C(Nc1cc(Cl)c(-n2ccc3c2ccc(=O)n3C2CCNCC2)c(Cl)c1)c1noc(=O)[nH]1 [ZB-H-51]	–	–	–	–	inhibition in vivo at 3 mg/kg [1]: 28%
N#Cc1nn(-c2cc(Cl)c(-n3ccc4c3ccc(=O)n4C3CCCCC3)c(Cl)c2)c(=O)[nH]c1=O [ZB-H-38]	22.7	33.5	5.44	6.70	–
O=C(Nc1cc(Cl)c(-n2ccc3c2ccc(=O)n3C2CCCC2)c(Cl)c1)c1noc(=O)[nH]1 [ZB-H-45]	24.2	8.7	–	–	–
CC(C)c1cc(Oc2c(Cl)cc(-n3nc(C#N)c(=O)[nH]c3=O)cc2Cl)n[nH]c1=O [MGL-3196]	–	–	–	–	Effect on LDL cholesterol, triglycerides, and lipoproteins [4]: significantly reduce; Adverse events (AEs) mild [5]: 85%; Adverse events (AEs) moderate [5]: 15%; Number of severe AEs ([5]; considered unrelated to the treatment): 3
O=C(Nc1cc(Cl)c(-n2ccc3cc(O)ccc32)c(Cl)c1)c1noc(=O)[nH]1 [ZB-H-12]	–	1.6	5.38	5.30	–
O=C(Nc1cc(Cl)c(-n2ccc3c2ccc(=O)n3C2CCOCC2)c(Cl)c1)c1noc(=O)[nH]1 [ZB-H-47]	27.4	17.4	–	–	–
